{
  "source": "paper PMC8536830",
  "about": "(Current Biology, 2021)",
  "type_in_all_cases": "cell-based, C. elegans",
  "key": {"LGC-54": {"target": "LGC-54 (Caenorhabditis elegans, UniProt O17041)", "sequence (O17041 entry or part of it)": "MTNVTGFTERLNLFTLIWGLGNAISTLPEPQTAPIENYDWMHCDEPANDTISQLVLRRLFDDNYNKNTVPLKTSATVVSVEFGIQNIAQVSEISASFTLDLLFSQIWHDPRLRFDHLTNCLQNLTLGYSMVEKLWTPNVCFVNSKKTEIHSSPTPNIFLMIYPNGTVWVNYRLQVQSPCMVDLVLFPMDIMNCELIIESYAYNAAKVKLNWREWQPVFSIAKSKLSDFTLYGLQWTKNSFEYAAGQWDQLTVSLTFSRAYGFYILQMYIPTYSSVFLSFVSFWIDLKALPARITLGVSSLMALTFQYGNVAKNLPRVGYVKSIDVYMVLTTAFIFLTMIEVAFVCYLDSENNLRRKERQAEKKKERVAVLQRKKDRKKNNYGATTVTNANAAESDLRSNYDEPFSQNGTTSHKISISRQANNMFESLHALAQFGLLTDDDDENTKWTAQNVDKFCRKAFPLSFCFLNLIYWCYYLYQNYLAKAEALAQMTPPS", "experiment": "Two-electrode voltage clamp, agonist-evoked currents in Xenopus oocytes expressing LGC-54", "source_text": "We aimed to deorphanize C. elegans LGICs without known ligands, focusing on 5 genes in the putative monoamine-gated group: lgc-50; lgc-51; lgc-52; lgc-54; and lgc-56 (previously named ggr-3). Using heterologous overexpression in Xenopus oocytes and two-electrode voltage clamp recordings, we measured channel activity evoked by application of 11 monoamines and other neurotransmitters.\n(§1) Defolliculated Xenopus laevis oocytes were obtained from EcoCyte Bioscience (Dortmund, Germany) and maintained in ND96 (in mM: 96 NaCl, 1 MgCl2, 5 HEPES, 1.8 CaCl2, 2 KCl) solution at 16°C for 3-5 days.\n(§2) 5'-capped cRNA was synthesized in vitro using the T3 mMessage mMachine transcription kit according to manufacturer’s protocol (Thermo Fischer Scientific, CA, USA). RNA was then purified using the GeneJET RNA purification kit (Thermo Fischer Scientific, CA, USA) prior to cRNA injection. Defolliculated Xenopus oocytes were placed individually into 96 well plates and injected with 50nL of 500ng/μL RNA using the Roboinject system (Multi Channel Systems GmbH, Reutlingen, Germany). When two constructs were injected the total RNA concentration remained 500ng/μL, with a 1:1 ratio of the components. Injected oocytes were incubated at 16°C in ND96 until the day of recording, typically between 3-5 days post injection.\nTwo-electrode voltage clamp recordings were carried out using the Robocyte2 recording system or a manual TEVC set up, using an OC-725D amplifier (Multi Channel Systems, Reutlingen, Germany) and paired with a custom-made recording chamber and agar bridges from reference and bath electrodes. Glass electrodes were pulled on a P-1000 Micropipette Puller (Sutter, Ca, USA) with a resistance ranging from 0.7-2 MΩ, pipettes, containing AgCl wires, were backfilled with a 3 M KCl solution for manual recordings and 1.5M KCl and 1 M acetic acid for Robocyte2 recordings. Oocytes were clamped at −60mV unless stated otherwise. Continuous recordings were taken during application of agonists and antagonists at 500 Hz. Data was recorded using WinWCP or RoboCyte2 control software, manual data was filtered at 10 Hz.\nDose response curves were calculated from the peak current during a 10 s agonist stimulation in ND96 solution, with a 60 s ND96 wash in between doses. Data was gathered over at least two occasions, using different batches of oocytes. Normalized dose response data was fitted to a nonlinear curve using a four parameters variable slope and the EC50 and Hill slope was calculated. All further recordings were carried out with the agonist at its EC50 concentration unless stated otherwise. Ion selectivity was determined using a voltage ramp protocol of 20mV/s ranging from −80mV to +60mV in the presence or absence of the primary agonist in three different solutions: ND96, NMDG (Na^+ free) and Na Gluconate (low Cl^-) solutions. Normalized ramp curves were fitted to a linear regression line and the x intercept was compared between solutions to calculate an average Erev from 4-5 oocytes. Antagonist dose response curves were calculated from the peak current during a 10 s agonist + antagonist stimulation in ND96 solution, with the agonist concentration remaining constant. Repeated agonist stimulus protocols were carried out by measuring the peak current during a 10 s agonist stimulation at three wash intervals, 10 s, 30 s and 60 s. Kinetic measurements were calculated from a 60 s agonist perfusion. Python scripts for TEVC analysis can be found at on GitHub at hiris25/TEVC-analysis-scripts and on Zenodo https://doi.org/10.5281/zenodo.5095181.\nDose response and antagonist response curves were generated using custom-built python scripts (key resources table), which combined data from multiple recordings and normalized data by calculating I/Imax for each oocyte."}, "LGC-50:MOD-1(327-458)": {"target": "T1, LGC-50:MOD-1(327-458) (Caenorhabditis elegans, UniProt P41849)", "T1 construct": "Plasmid: KSM: lgc-50:mod-1(327-458) (cDNA); MOD-1 residues 327-458 (M3/4 loop); expressed in transfected cells; host or cells: Xenopus laevis oocytes injected with cRNA (plasmid pIH125)", "T1 sequence (P41849 with tags, fused parts or gaps)": "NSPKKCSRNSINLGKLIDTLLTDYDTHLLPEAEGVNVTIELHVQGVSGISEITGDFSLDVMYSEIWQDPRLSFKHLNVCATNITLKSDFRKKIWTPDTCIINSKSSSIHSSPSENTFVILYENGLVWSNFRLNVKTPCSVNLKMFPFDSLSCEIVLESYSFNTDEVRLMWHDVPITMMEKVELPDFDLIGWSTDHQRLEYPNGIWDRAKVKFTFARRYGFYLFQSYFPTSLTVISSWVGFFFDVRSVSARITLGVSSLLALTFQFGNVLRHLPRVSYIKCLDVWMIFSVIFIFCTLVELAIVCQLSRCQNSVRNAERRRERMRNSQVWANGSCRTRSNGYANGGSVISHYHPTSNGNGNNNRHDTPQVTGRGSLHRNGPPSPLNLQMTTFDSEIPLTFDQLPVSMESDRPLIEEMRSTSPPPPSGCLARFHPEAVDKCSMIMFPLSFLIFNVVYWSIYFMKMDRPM", "experiment": "Two-electrode voltage clamp, 5-HT evoked dose response, LGC-50 chimera with MOD-1 M3/4 loop", "settings": "Xenopus oocytes, TEVC; LGC-50 with M3/4 loop of MOD-1", "experimental": "To investigate, we exchanged the intracellular M3/4 loop of LGC-50 with the equivalent region of MOD-1 (LGC-50:MOD-1 327–458) and expressed the chimera in oocytes. […] The EC50 of the chimeric channels matched that of the recipient channel (Figures 5C and 5D).\nas §1\n5'-capped cRNA was synthesized in vitro using the T3 mMessage mMachine transcription kit according to manufacturer’s protocol (Thermo Fischer Scientific, CA, USA). […]\n(§3) Two-electrode voltage clamp recordings were carried out using the Robocyte2 recording system or a manual TEVC set up, using an OC-725D amplifier (Multi Channel Systems, Reutlingen, Germany) and paired with a custom-made recording chamber and agar bridges from reference and bath electrodes. […] Data was recorded using WinWCP or RoboCyte2 control software, manual data was filtered at 10 Hz.\nDose response curves were calculated from the peak current during a 10 s agonist stimulation in ND96 solution, with a 60 s ND96 wash in between doses. […] Normalized dose response data was fitted to a nonlinear curve using a four parameters variable slope and the EC50 and Hill slope was calculated. […] Kinetic measurements were calculated from a 60 s agonist perfusion. […]"}, "LGC-50:MOD-1(363-397)": {"target": "T2, LGC-50:MOD-1(363-397) (Caenorhabditis elegans, UniProt P41849)", "T2 sequence (P41849 with tags, fused parts or gaps)": "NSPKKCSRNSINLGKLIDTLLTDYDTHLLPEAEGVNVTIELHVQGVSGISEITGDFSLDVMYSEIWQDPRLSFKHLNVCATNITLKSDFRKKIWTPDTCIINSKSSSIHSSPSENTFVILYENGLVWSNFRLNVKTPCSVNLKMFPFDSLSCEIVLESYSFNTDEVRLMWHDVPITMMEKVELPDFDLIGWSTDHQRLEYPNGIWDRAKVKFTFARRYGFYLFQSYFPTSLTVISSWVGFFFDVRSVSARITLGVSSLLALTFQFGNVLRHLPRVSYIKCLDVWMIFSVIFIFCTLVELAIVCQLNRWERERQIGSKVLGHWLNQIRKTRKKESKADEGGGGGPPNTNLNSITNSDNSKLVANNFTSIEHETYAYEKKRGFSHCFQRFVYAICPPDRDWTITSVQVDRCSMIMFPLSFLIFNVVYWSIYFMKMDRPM", "T2 sequence (Q9GQ00 363-397 partner)": "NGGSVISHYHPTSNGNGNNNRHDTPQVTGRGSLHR", "experiment": "Two-electrode voltage clamp, 5-HT evoked dose response, LGC-50:MOD-1(363-397) chimera", "settings": "Xenopus oocytes, TEVC", "experimental": "as §1\nas §2, with “When two constructs were injected the total RNA concentration remained 500ng/μL, with a 1:1 ratio of the components. Injected oocytes were incubated at 16°C in ND96 until the day of recording, typically between 3-5 days post injection.” left out\nas §3\nDose response curves were calculated from the peak current during a 10 s agonist stimulation in ND96 solution, with a 60 s ND96 wash in between doses. […] Normalized dose response data was fitted to a nonlinear curve using a four parameters variable slope and the EC50 and Hill slope was calculated. […]"}},
  "data": [
    {"compound": "NCCc1c[nH]c2ccc(O)cc12", "note": "[5-HT, serotonin]", "values": [
      {"measurement": "EC50", "setting": "LGC-54; Xenopus oocytes, TEVC, current normalized to Imax, Hill equation with variable slope, read-out: EC50, agonist-evoked dose response, LGC-54", "result": 94000, "unit": "nM"},
      {"measurement": "Channel activation in ligand screen, LGC-54", "setting": "LGC-54; ligands screened at 100 μM, oocytes clamped at −60 mV", "result": "responded to 5-HT at high concentrations"},
      {"measurement": "EC50", "setting": "LGC-50:MOD-1(327-458)", "result": 850, "unit": "nM"},
      {"measurement": "EC50", "setting": "LGC-50:MOD-1(363-397)", "result": 980, "unit": "nM"}
    ]}
  ]
}
